Assay results: patent US9073821B2, “Hydroxamic acid derivative” (priority 2010, dated 2015)

Molecular target: Pseudomonas aeruginosa LpxC enzyme (Pseudomonas aeruginosa (strain ATCC 15692 / DSM 22644 / CIP 104116 / JCM 14847 / LMG 12228 / 1C / PRS 101 / PAO1), UniProt P47205)
Assay: biochemical
Format: biochemical
Details: class symbols A/B/C by IC50; Table 3; read-out: Enzyme inhibitory activity (inhibitory activity on Pseudomonas aeruginosa LpxC enzyme)

SMILES	IC50 [nM]
CCN1Cc2cc(C#Cc3ccc(C(=O)N(C)C(C(=O)NC)C(=O)NO)cc3)ccc2[C@H]1C (stereo partly drawn) [Compound 516, 2-{[(4-{[(1R)-2-ethyl-1-methyl-2,3-dihydro-1H-isoindol-5-yl]ethynyl}phenyl)carbonyl](methyl)amino}-N-hydroxy-N′-methylpropanediamide]	10 to 100
CNC(=O)[C@@](C)(C(=O)NO)N(C)C(=O)c1ccc(C#C/C=C/CCCOC)cc1 [Compound 597, (2S)-N-hydroxy-2-[{4-[(3E)-7-methoxyhept-3-en-1-yn-1-yl]benzoyl}(methyl)amino]-N′,2-dimethylpropanediamide]	< 10

Same assay, conditions: inhibitory activity on Pseudomonas aeruginosa LpxC enzyme, class symbols A/B/C; read-out: Enzyme inhibitory activity

SMILES	IC50 [nM]
CNC(=O)C(C(=O)NO)N(C)C(=O)c1ccc(-c2ccccc2C)cc1 (centres unmarked) [Compound 18, N-hydroxy-N′-methyl-2-{methyl[(2′-methylbiphenyl-4-yl)carbonyl]amino}propanediamide]	10 to 100
CNC(=O)C(C(=O)NO)N(C)C(=O)c1ccc(OCC#Cc2ccccc2)cc1 (centres unmarked) [Compound 453, N-hydroxy-N′-methyl-2-[methyl({4-[(3-phenylprop-2-yn-1-yl)oxy]phenyl}carbonyl)amino]propanediamide]	10 to 100
O=C(NC(C(=O)NO)C(=O)NCc1cocn1)c1ccc(-c2ccc(OCCO)cc2)cc1 (centres unmarked) [Compound 157, N-hydroxy-2-({[4′-(2-hydroxyethoxy)biphenyl-4-yl]carbonyl}amino)-N′-(1,3-oxazol-4-ylmethyl)propanediamide]	< 10
CNC(=O)C(C(=O)NO)N(C)C(=O)c1ccc(OC(F)(F)F)cc1 (centres unmarked) [Compound 22, N-hydroxy-N′-methyl-2-{methyl[4-(trifluoromethoxy)benzoyl]amino}propanediamide]	> 100
CC(C)(C)CNC(=O)C(NC(=O)c1ccc(-c2ccc(OCCO)cc2)cc1)C(=O)NO (centres unmarked) [Compound 136, N-(2,2-dimethylpropyl)-N′-hydroxy-2-({[4′-(2-hydroxyethoxy)biphenyl-4-yl]carbonyl}amino)propanediamide]	10 to 100
CNC(=O)C(C(=O)NO)N(C)C(=O)c1ccc(-c2ccc([C@@H](C)NC(=O)OC(C)(C)C)cc2)cc1 (stereo partly drawn) [Compound 34, tert-butyl[(1R)-1-(4′-{[1-(hydroxyamino)-3-(methylamino)-1,3-dioxopropan-2-yl](methyl)carbamoyl}biphenyl-4-yl)ethyl]carbamate]	10 to 100
CNC(=O)C(C(=O)NO)N(C)C(=O)c1ccc(-c2ccc(OC(F)F)cc2)cc1 (centres unmarked) [Compound 51, 2-[{[4′-(difluoromethoxy)biphenyl-4-yl]carbonyl}(methyl)amino]-N-hydroxy-N′-methylpropanediamide]	< 10
O=C(NC(C(=O)NO)C(=O)NCCc1ccccc1)c1ccc(-c2ccc(OCCO)cc2)cc1 (centres unmarked) [Compound 125, N-hydroxy-2-({[4′-(2-hydroxyethoxy)biphenyl-4-yl]carbonyl}amino)-N′-(2-phenylethyl)propanediamide]	10 to 100
CCN(C(=O)c1ccc(-c2ccc(NC)cc2)cc1)C(C(=O)NC)C(=O)NO (centres unmarked) [Compound 235, 2-(ethyl {[4′-(methylamino)biphenyl-4-yl]carbonyl}amino)-N-hydroxy-N′-methylpropanediamide]	< 10
CNC(=O)C(C(=O)NO)N(OC)C(=O)c1ccc(-c2ccccc2)cc1 (centres unmarked) [Compound 17, 2-[(biphenyl-4-ylcarbonyl)(methoxy)amino]-N-hydroxy-N′-methylpropanediamide]	10 to 100
CCNC(=O)C(NC(=O)c1ccc(-c2ccc(OCCO)cc2)cc1)C(=O)NO (centres unmarked) [Compound 139, N-ethyl-N′-hydroxy-2-({[4′-(2-hydroxyethoxy)biphenyl-4-yl]carbonyl}amino)propanediamide]	10 to 100
CNC(=O)C(C(=O)NO)N(C)C(=O)c1ccc(-c2ccc(OCCN3CCOCC3)cc2)cc1 (centres unmarked) [Compound 243, N-hydroxy-N′-methyl-2-[methyl({4′-[2-(morpholin-4-yl)ethoxy]biphenyl-4-yl}carbonyl)amino]propanediamide]	10 to 100
CNC(=O)C(C(=O)NO)N(C)C(=O)c1ccc(-c2ccncc2F)cc1 (centres unmarked) [Compound 448, 2-[{[4-(3-fluoropyridin-4-yl)phenyl]carbonyl}(methyl)amino]-N-hydroxy-N′-methylpropanediamide]	10 to 100
CCCNc1ccc(-c2ccc(C(=O)N(C)C(C(=O)NC)C(=O)NO)cc2)cc1F (centres unmarked) [Compound 231, 2-[{[3′-fluoro-4′-(propylamino)biphenyl-4-yl]carbonyl}(methyl)amino]-N-hydroxy-N′-methylpropanediamide]	< 10
CNC(=O)C(C(=O)NO)N(C)C(=O)c1ccc(-c2ccc(CCCO)cc2)cc1 (centres unmarked) [Compound 165, N-hydroxy-2-[{[4′-(3-hydroxypropyl)biphenyl-4-yl]carbonyl}(methyl)amino]-N′-methylpropanediamide]	< 10
CNC(=O)C(C(=O)NO)N(C)C(=O)c1ccc(-c2ccc(CNC3CC3)cc2)cc1 (centres unmarked) [Compound 205, 2-[({4′-[(cyclopropylamino)methyl]biphenyl-4-yl}carbonyl)(methyl)amino]-N-hydroxy-N′-methylpropanediamide]	10 to 100
CNC(=O)C(C(=O)NO)N(C)C(=O)c1ccc(N2CC(c3ccccc3)C2)cc1 (centres unmarked) [Compound 249, N-hydroxy-N′-methyl-2-{methyl[4-(3-phenylazetidin-1-yl)benzoyl]amino}propanediamide]	10 to 100

SMILES	IC50 [nM]
CNC(=O)C(C(=O)NO)N(C)C(=O)c1ccc(-c2ccccc2F)cc1 (centres unmarked) [Compound 59, 2-{[(2′-fluorobiphenyl-4-yl)carbonyl](methyl)amino}-N-hydroxy-N′-methylpropanediamide]	< 10
CNC(=O)C(C(=O)NO)N(C)C(=O)c1ccc(-c2cc(F)c(NC)cc2F)cc1 (centres unmarked) [Compound 67, 2-[{[2′,5′-difluoro-4′-(methylamino)biphenyl-4-yl]carbonyl}(methyl)amino]-N-hydroxy-N′-methylpropanediamide]	< 10
CNC(=O)C(C(=O)NO)N(C)C(=O)c1ccc(-c2ccc(C)cc2F)cc1 (centres unmarked) [Compound 23, 2-{[(2′-fluoro-4′-methylbiphenyl-4-yl)carbonyl](methyl)amino}-N-hydroxy-N′-methylpropanediamide]	< 10
CNC(=O)C(C(=O)NO)N(C(=O)c1ccc(-c2ccc(OCCCN3CCOCC3)cc2)cc1)C1CC1 (centres unmarked) [Compound 198, 2-[cyclopropyl({4′-[3-(morpholin-4-yl)propoxy]biphenyl-4-yl}carbonyl)amino]-N-hydroxy-N′-methylpropanediamide]	< 10
CCCOc1ccc(-c2ccc(C(=O)N(C)C(C(=O)NC)C(=O)NO)cc2)cn1 (centres unmarked) [Compound 467, N-hydroxy-N′-methyl-2-(methyl {[4-(6-propoxypyridin-3-yl)phenyl]carbonyl}amino)propanediamide]	< 10
O=C(NC(C(=O)NO)C(=O)NCc1ccccn1)c1ccc(-c2ccc(OCCO)cc2)cc1 (centres unmarked) [Compound 130, N-hydroxy-2-({[4′-(2-hydroxyethoxy)biphenyl-4-yl]carbonyl}amino)-N′-(pyridin-2-ylmethyl)propanediamide]	< 10
CNC(=O)C(C(=O)NO)N(C)C(=O)c1ccc(C#Cc2ccc(CNC(C)(C)C)cc2)cc1 (centres unmarked) [Compound 328]	10 to 100
CNC(=O)C(C(=O)NO)N(C)C(=O)c1ccc(C#Cc2ccc(CN(CCO)CCO)cc2)cc1 (centres unmarked) [Compound 315, 2-[({4-[(4-{[bis(2-hydroxyethyl)amino]methyl}phenyl)ethynyl]phenyl}carbonyl)(methyl)amino]-N-hydroxy-N′-methylpropanediamide]	< 10
CNC(=O)C(C(=O)NO)N(C)C(=O)c1ccc(C#Cc2ccc(OCCN3CCOCC3)cc2)cc1 (centres unmarked) [Compound 382, N-hydroxy-N′-methyl-2-(methyl {[4-({4-[2-(morpholin-4-yl)ethoxy]phenyl}ethynyl)phenyl]carbonyl}amino)propanediamide]	< 10
CNC(=O)C(C(=O)NO)N(C)C(=O)c1ccc(-c2ccsc2)cc1 (centres unmarked) [Compound 292, N-hydroxy-N′-methyl-2-(methyl {[4-(thiophen-3-yl)phenyl]carbonyl}amino)propanediamide]	10 to 100
CNC(=O)C(C(=O)NO)N(C)C(=O)c1ccc(-c2ccc(CN(C)OC)cc2)cc1 (centres unmarked) [Compound 259, N-hydroxy-2-{[(4′-{[methoxy(methyl)amino]methyl}biphenyl-4-yl)carbonyl](methyl)amino}-N′-methylpropanediamide]	10 to 100
CNC(=O)C(C(=O)NO)N(C)C(=O)c1ccc(-c2ccc(OCCCN3CCC(F)(F)CC3)cc2)cc1 (centres unmarked) [Compound 264, 2-[({4′-[3-(4,4-difluoropiperidin-1-yl)propoxy]biphenyl-4-yl}carbonyl)(methyl)amino]-N-hydroxy-N′-methylpropanediamide]	< 10
CNC(=O)C(C(=O)NO)N(C)C(=O)c1ccc(C#Cc2ccc(CN3CCCCC3)cc2)cc1 (centres unmarked) [Compound 234, N-hydroxy-N′-methyl-2-[methyl(4-{[4-(piperidin-1-ylmethyl)phenyl]ethynyl}benzoyl)amino]propanediamide]	< 10
CNC(=O)C(NC(=O)c1ccc(C#Cc2ccc(NCCO)cc2)cc1)C(=O)NO (centres unmarked) [Compound 115, N-hydroxy-2-{[4-({4-[(2-hydroxyethyl)amino]phenyl}ethynyl)benzoyl]amino}-N′-methylpropanediamide]	< 10
CNC(=O)C(C(=O)NO)N(C)C(=O)c1ccc(C#Cc2ccc(CN3CCC(O)CC3)cc2)cc1 (centres unmarked) [Compound 334, N-hydroxy-2-[{[4-({4-[(4-hydroxypiperidin-1-yl)methyl]phenyl}ethynyl)phenyl]carbonyl}(methyl)amino]-N′-methylpropanediamide]	< 10
CNC(=O)C(C(=O)NO)N(C)C(=O)c1ccc(-c2ccc(OCCCN3CC(C)OC(C)C3)cc2)cc1 (centres unmarked) [Compound 88, 2-[({4′-[3-(2,6-dimethylmorpholin-4-yl)propoxy]biphenyl-4-yl}carbonyl)(methyl)amino]-N-hydroxy-N′-methylpropanediamide]	< 10
